In PubChem BioAssay (NCI):
Where “and” joins values, the source holds several entries; their conditions need not be identical. Equal entries are not always repeated.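 Method: 48-hour compound exposure of cells in 96-well plates, five concentrations, linear interpolation of endpoints. The concentration for 50% growth inhibition is given as GI50. TGI marks complete inhibition of growth.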

Legend:
Assay in all cases: DTP human tumour cell line panel, 48 h
EKVX NSCLC = system: EKVX NSCLC
K-562 leukemia = system: K-562 leukemia
LOX IMVI melanoma = system: LOX IMVI melanoma
OVCAR-3 ovarian = system: OVCAR-3 ovarian
SW-620 colon = system: SW-620 colon
TK-10 renal = system: TK-10 renal
UACC-257 melanoma = system: UACC-257 melanoma
M14 melanoma = system: M14 melanoma
MCF7 breast = system: MCF7 breast
NCI/ADR-RES ovarian = system: NCI/ADR-RES ovarian
UO-31 renal = system: UO-31 renal
OVCAR-4 ovarian = system: OVCAR-4 ovarian

SMILES	TGI (EKVX NSCLC)	TGI (K-562 leukemia)	TGI (LOX IMVI melanoma)	TGI (OVCAR-3 ovarian)	TGI (SW-620 colon)	TGI (TK-10 renal)	TGI (UACC-257 melanoma)	TGI (M14 melanoma)	TGI (MCF7 breast)	TGI (NCI/ADR-RES ovarian)	TGI (UO-31 renal)	TGI (OVCAR-4 ovarian)	GI50 (M14 melanoma)	GI50 (OVCAR-4 ovarian)	GI50 (UACC-257 melanoma)	GI50 (UO-31 renal)
Cc1nc2sccn2c1C(=O)NN	> 100 µM	> 100 µM	> 100 µM	> 100 µM	> 100 µM	> 100 µM	> 100 µM									
COc1ccc(N=c2oc3ccccc3cc2C(N)=O)cc1	> 100 µM	> 100 µM	> 100 µM	> 100 µM	> 100 µM	46.6 µM	> 100 µM	> 100 µM	87.7 µM	> 100 µM	14.8 µM					
CCOC(=O)C1(C#N)OC(=O)c2cnccc21 (stereo not given)	> 100 µM	> 100 µM	> 100 µM	> 100 µM	> 100 µM		> 100 µM	> 100 µM	> 100 µM	> 100 µM	> 100 µM	> 100 µM				
OC12c3ccccc3C1CCCCC2N1CCCC1 (stereo not given)	> 100 µM		> 100 µM		> 100 µM	> 100 µM	> 100 µM	> 100 µM			> 100 µM	> 100 µM				
CSc1nc(-c2ccc(Cl)cc2)c(C#N)c(=O)n1C1OC(COC(C)=O)C(OC(C)=O)C(OC(C)=O)C1OC(C)=O (stereo not given)	> 100 µM	> 100 µM		33.2 µM	> 100 µM	> 100 µM	38.8 µM and > 100 µM	> 100 µM			23.5 µM and > 100 µM	> 100 µM	34.7 µM and 88.9 µM	> 100 µM	14.5 µM and > 100 µM	10.4 µM and > 100 µM
NC(=O)C1CCCN1C(=O)C(Cc1cnc[nH]1)NC(=O)C1CCCC1 (stereo not given)	> 100 µM	> 100 µM	> 100 µM	> 100 µM	> 100 µM	> 100 µM		> 100 µM	> 100 µM	> 100 µM	> 100 µM	> 100 µM				
Nc1nc(Cl)cc(NCC2(O)CCC2)n1	> 100 µM	> 100 µM	> 100 µM	> 100 µM	> 100 µM	> 100 µM	> 100 µM		> 100 µM	> 100 µM	> 100 µM	> 100 µM				
Cc1ccc2c(=O)cc(-c3sccc3C)[nH]c2n1	> 100 µM	> 100 µM	> 38.1 µM	> 100 µM		> 100 µM		> 34.4 µM	> 57.7 µM	0.693 µM	23.8 µM	> 100 µM				
COc1ccccc1Nc1nc2c([nH]1)c(=O)n(C)c(=O)n2C	> 10 µM	> 10 µM	> 10 µM		> 10 µM	> 10 µM	> 10 µM	> 10 µM	> 10 µM			> 10 µM				
CSC1=N/C(=C\c2ccc(Cl)cc2)C(=O)N1CN1CCCCC1	53.3 µM	> 100 µM	> 100 µM	> 100 µM	> 100 µM	> 100 µM		> 100 µM	82.8 µM	> 100 µM	> 100 µM					
COc1ccc(C(=O)C#Cc2cn(C3CC(O)C(CO)O3)c(=O)[nH]c2=O)cc1 (stereo not given)	> 100 µM	> 100 µM		34.9 µM	> 100 µM	> 100 µM	> 100 µM	75 µM	> 100 µM	> 100 µM	> 100 µM	> 100 µM				
COc1cc2cc(OC(C)=O)c3cc4c(cc3c2c(OC)c1OC)OCO4	> 100 µM	> 100 µM	> 100 µM	> 100 µM	> 100 µM	> 100 µM	> 100 µM	> 100 µM			> 100 µM	> 100 µM				
CC(/C=C/C(=O)NO)=C\C(C)C(=O)c1ccc(N(C)C)cc1 (stereo not given)	41 µM				29.8 µM	0.107 µM	0.387 µM	0.971 µM	> 100 µM		0.262 µM	16.8 µM				
O=C(Nc1ccc(C(F)(F)F)cc1)NC(F)(F)F	> 100 µM	> 100 µM	> 100 µM		> 100 µM	> 100 µM	> 100 µM	> 100 µM		> 100 µM	> 100 µM					
C=CC(=O)Nc1ccc(NC(=O)C=C)c2c1C(=O)c1ccccc1C2=O	> 100 µM	48.4 µM	47.4 µM	> 100 µM	> 100 µM	62.5 µM	> 100 µM	> 100 µM	57.4 µM	> 100 µM	> 100 µM					
C=CCOC(=O)CC[C@H](NC(=O)[C@@H](CCC(F)(F)F)Cc1ccc(O)cc1)C(=O)OCC=C	73.4 µM	> 100 µM	> 100 µM		> 100 µM			42.6 µM	48.2 µM	> 100 µM	> 100 µM	> 100 µM				

SMILES	TGI (EKVX NSCLC)	TGI (K-562 leukemia)	TGI (LOX IMVI melanoma)	TGI (OVCAR-3 ovarian)	TGI (SW-620 colon)	TGI (TK-10 renal)	TGI (UACC-257 melanoma)	TGI (M14 melanoma)	TGI (MCF7 breast)	TGI (NCI/ADR-RES ovarian)	TGI (UO-31 renal)	TGI (OVCAR-4 ovarian)	GI50 (M14 melanoma)	GI50 (OVCAR-4 ovarian)	GI50 (UACC-257 melanoma)	GI50 (UO-31 renal)
CCn1cc2c(=O)n3ncn(-c4ccc(Br)cc4)c3nc2n1	> 100 µM	> 100 µM		> 100 µM	> 100 µM	> 100 µM	> 100 µM	> 100 µM	> 100 µM	> 100 µM	> 100 µM	> 100 µM				
Cc1ccc(O)c(C(c2cccc(C(c3cc(C)ccc3O)c3cc(C)ccc3O)c2)c2cc(C)ccc2O)c1	3.63 µM	3.37 µM		4.35 µM	3.2 µM	3.25 µM	3.86 µM	3.45 µM	3.18 µM	7.66 µM	3.34 µM	3.73 µM				
CCc1cccc(C(C)C)c1NC(=O)C(=O)C1C(=O)Nc2ccccc2S1=O (stereo not given)	> 100 µM		> 100 µM	> 100 µM	> 100 µM	> 100 µM	> 100 µM	> 100 µM	> 100 µM	> 100 µM	> 100 µM	> 100 µM				
CC(=O)OC[C@H]1CN(OC(C)=O)C[C@@H](n2cc(C)c(=O)[nH]c2=O)O1	> 100 µM	> 100 µM			> 100 µM	> 100 µM	> 100 µM	> 100 µM	> 100 µM		> 100 µM	> 100 µM				
COc1ccc(CNc2cnc3cc(N)ccc3n2)cc1	> 100 µM	> 100 µM	> 100 µM	> 100 µM	> 100 µM	> 100 µM		> 100 µM			> 100 µM	> 100 µM				
COc1cc(/C=C2\C(=O)N(C(=O)Cc3ccccc3)N=C2C)cc(OC)c1OC	> 100 µM	> 100 µM	> 100 µM	> 100 µM	> 100 µM	> 100 µM	> 100 µM	> 100 µM			> 100 µM	> 100 µM				
CC(C)(O)C(O)COc1c2c(cc3oc(=O)ccc13)OCO2 (stereo not given)	> 100 µM	> 100 µM	> 100 µM	> 100 µM	> 100 µM	> 100 µM	> 100 µM	> 100 µM			> 100 µM	> 100 µM				
CC(=O)Nc1ccc2c3c(cc(O)c2c1)N(C(=O)CCCC(=O)N1CC(CCl)c2c1cc(O)c1cc(NC(C)=O)ccc21)CC3CCl (stereo not given)	0.0925 µM	> 100 µM	> 100 µM	0.0262 µM	> 100 µM	0.057 µM		0.0175 µM		> 100 µM	0.0604 µM	0.64 µM				
FC1(F)[Se]C2C3CCC(C3)C2C1(F)F (stereo not given)	> 100 µM		> 100 µM	> 100 µM	> 100 µM	> 100 µM		> 100 µM	> 100 µM	> 100 µM	> 100 µM	> 100 µM				
N#CC12C(=O)NC(=O)C1(C#N)C1C=CC2CC1 (stereo not given)	> 100 µM		> 100 µM	> 100 µM	> 100 µM	> 100 µM	> 100 µM	> 100 µM	> 100 µM	> 100 µM	> 100 µM	> 100 µM				
COc1cc(C2C(Cl)C(=O)N2NC(=O)Cc2ccccc2)cc(Br)c1O (stereo not given)	> 100 µM	> 100 µM	> 100 µM	> 100 µM	> 100 µM	> 100 µM	> 100 µM	> 100 µM			> 100 µM	> 100 µM				
C=C(C)C12CC3CC(/C(=N/O)C(C1)/C3=N\O)[C@@]2(C)O (stereo not given in full)	> 100 µM	> 100 µM	> 100 µM	> 100 µM	> 100 µM	> 100 µM	> 100 µM	> 100 µM			> 100 µM					
CC1=C(C(=O)OC2CC3CCC2(C)C3(C)C)C2Nc3ccccc3N(C)C2O1 (stereo not given)	21.1 µM	> 29.4 µM	6.12 µM	11.9 µM	6.99 µM	17.4 µM	3.3 µM	3.22 µM		12.6 µM	7.19 µM					
O=c1c2cc(-c3ccccc3)cnc2sn1-c1ccc(Br)cc1	> 100 µM	> 100 µM		> 100 µM	> 100 µM		> 100 µM	> 100 µM	> 100 µM	> 100 µM	> 100 µM	> 100 µM				
CO/C=C/C=C(\C#N)C(=O)OC	> 100 µM	> 100 µM	> 100 µM	> 100 µM	> 100 µM	> 100 µM	> 100 µM		> 100 µM	> 100 µM	> 100 µM	> 100 µM				
COc1cccc2c1c1ccc3c(c1n2C)C(=O)C=CC3=O		> 100 µM	32.2 µM	30.5 µM	24.7 µM	33.3 µM	30.3 µM	27.7 µM			44.2 µM	31.8 µM				
